Measurements as given in US10253255B2, “Phosphorescent nanoparticles and their uses in biosensing and bioimaging” (University of North Texas, priority 2015, dated 2019).

Legend:
SNU-5 cells = assay: MTT cell viability (cytotoxicity); conditions: SNU-5 cell lines, buffered aqueous solution, FIG. 15
Protocol: SNU-5 cells were purchased from ATCC (cat. # CRL-5973) (American Type Culture Collection, Manassas, Va.), and maintained in Iscove's Modified Dulbecco's Medium (IMDM) (ATCC, cat. #30-2005) with 10% FBS (Fisherbrand Research Grade Fetal Bovine Serum, cat. #03-600-511) (Fisher Scientific UK Ltd., Loughborough). Cells (10,000/well) were seeded on 96-well plates and the desired particle amounts were added to the wells. The plates were incubated for an additional 24 h at 37° C. (5% CO2). After incubation, cell viability was evaluated using MTT. MTT dissolved in culture media (5 mg/mL) was added to each well (25 L/well). The cells were incubated for 4 h at 37° C. (5% CO2) after which time 0.08 M HCl in 2-propanol (100 L/well) was added. Light absorption was measured on a Synergy 2 multi-mode microplate reader (BioTek, Winooski, Vt.). The viability of the cells exposed to particles was expressed as a percentage of the viability of cells grown in the absence of particles on the same plate.
Cells were grown to ˜90% confluence in 96 well plate format in complete growth media containing 10% fetal bovine serum. PCHNPs or TPPTs in 0.1 wt % chitosan were dosed on cells at concentrations ranging from 0.5 to 200 μg/mL. Viability after 24 h of exposure was evaluated using MTT reagent and compared to healthy cells on the same plate. […]

[1] = target: T1, Bovine Serum Albumin (BSA) (Bos taurus, UniProt P02769); assay: Labelling of BSA with Pt—POP, absorbance after dialysis; type: binding; conditions: after 24 hours of dialysis
T1 construct: purchased Sigma-Aldrich
Text: A common model protein (BSA=bovine serum albumin) was labeled with Pt—POP to enable BSA differentiation, with oxygen sensitivity, in biological media.

[2] = Storage and solution stability
[3] = In vitro hypoxia detection by Pt—POP (epi-fluorescence microscope); conditions: Pt—POP aqueous solution in a Petri dish
Text: For identification of hypoxic environments, Pt—POP has been used. The efficiency of Pt—POP as an oxygen sensor is shown in FIG. 16, including its effective usage for live bioimaging applications. […] The progressive phosphorescence intensity signal increase immediately after oxygen levels are decreased below 20% for the Pt—POP aqueous solution in a Petri dish should be noted. Results for this sensor in conjunction with the excellent animal model for hypoxia, C. elegans worms, are shown in FIG. 17, whereas similar results in E. coli bacteria and in D. rerio zebra fish are shown in FIGS. 18 and 19, respectively. In FIG. 18, conditions were: 18A: E. coli bacteria with 64X, DIC; 18B: E. coli bacteria with 64X, 405-520,222 g, 0.4 ms; 18C: E. coli bacteria incubated with Pt—POP 64X, 405-520,222 g, 0.4 ms; 18D: E. coli bacteria incubated with Pt—POP on 8th day 64X, 405-520,222 g, 0.4 ms. In FIG. 19, pictures were taken for stationary fish directly after injection (A) and 7 minutes after induced hypoxia (B), and for a swimming fish (C).

T1 sequence (P02769 25-607): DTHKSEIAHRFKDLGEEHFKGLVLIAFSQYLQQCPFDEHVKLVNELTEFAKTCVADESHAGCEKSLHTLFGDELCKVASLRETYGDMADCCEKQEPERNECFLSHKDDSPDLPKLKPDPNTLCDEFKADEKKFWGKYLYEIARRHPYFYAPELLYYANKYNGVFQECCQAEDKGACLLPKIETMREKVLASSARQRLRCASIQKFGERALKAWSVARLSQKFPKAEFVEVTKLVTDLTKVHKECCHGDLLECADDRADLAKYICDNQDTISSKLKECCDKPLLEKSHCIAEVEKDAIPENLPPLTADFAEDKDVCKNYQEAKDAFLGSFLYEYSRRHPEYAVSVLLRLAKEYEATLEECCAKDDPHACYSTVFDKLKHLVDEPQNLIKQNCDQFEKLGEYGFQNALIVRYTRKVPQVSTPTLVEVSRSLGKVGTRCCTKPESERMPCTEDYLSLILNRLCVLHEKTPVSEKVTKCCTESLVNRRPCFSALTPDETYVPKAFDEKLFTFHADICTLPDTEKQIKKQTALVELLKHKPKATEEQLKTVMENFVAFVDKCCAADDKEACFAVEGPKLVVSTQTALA

O=S(=O)([O-])c1cccc(P(c2cccc(S(=O)(=O)[O-])c2)c2cccc(S(=O)(=O)[O-])c2)c1.[Na+].[Na+].[Na+] [TPPTS, 3,3′,3″-Phosphanetriyltris(benzenesulfonic acid) trisodium salt, reference compound]
biological toxicity (MTT assay) (SNU-5 cells): benign

M4[Pt2(P2O5H2)4].2H2O [Pt—POP]
absorbance of PBS control lower than BSA sample (binding to BSA) [1]: approximately 10 times | stability in solution ([2]; in presence of a biocompatible polymer such as chitosan or PAN): dramatically enhanced from minutes to years | stability in solution ([2]; without polymer): long-term instability | oxygen level below which phosphorescence intensity signal increases [3]: below 20%

Na8[Au(TPPTS)3] [AuP]
biological toxicity (MTT assay) (SNU-5 cells): benign
